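Grown in 96-well plates, cells were treated for 48 hours with each compound at five concentrations. Insufficient inhibition: endpoint recorded as highest concentration tested. Here, GI50 denotes the concentration required for 50% inhibition of growth.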 Active and inactive are the calls of the source. No stated cut-off is given here; in the data, active = GI50 up to about 1.1 µM and inactive = higher.
Key:
Assay in all cases: growth of human tumour cells (NCI), 48 h
786-0 = system: 786-0
A498 = system: A498
CAKI-1 = system: CAKI-1
CCRF-CEM = system: CCRF-CEM
COLO 205 = system: COLO 205
HCT-116 = system: HCT-116
HT-29 = system: HT-29
IGROV-1 = system: IGROV-1
K562 = system: K562
LOX IMVI = system: LOX IMVI
LXFL 529 = system: LXFL 529
MOLT-4 = system: MOLT-4
NCI-H226 = system: NCI-H226
SF-268 = system: SF-268
SK-MEL-28 = system: SK-MEL-28
SK-OV-3 = system: SK-OV-3
UO-31 = system: UO-31
BT-549 = system: BT-549
NCI/ADR-RES = system: NCI/ADR-RES
SR = system: SR

SMILES	GI50 (786-0)	GI50 (A498)	GI50 (CAKI-1)	GI50 (CCRF-CEM)	GI50 (COLO 205)	GI50 (HCT-116)	GI50 (HT-29)	GI50 (IGROV-1)	GI50 (K562)	GI50 (LOX IMVI)	GI50 (LXFL 529)	GI50 (MOLT-4)	GI50 (NCI-H226)	GI50 (SF-268)	GI50 (SK-MEL-28)	GI50 (SK-OV-3)	GI50 (UO-31)	GI50 (BT-549)	GI50 (NCI/ADR-RES)	GI50 (SR)
CNC(=O)OCc1c2ccncc2c(C)c2c1[nH]c1ccc(OC)cc12	0.156 µM (active)	0.176 µM (active)	0.968 µM (active)	0.176 µM (active)	0.536 µM (active)	0.156 µM (active)	0.33 µM (active)	0.284 µM (active)	0.322 µM (active)	0.256 µM (active)	0.115 µM (active)	0.0404 µM (active)	0.179 µM (active)	0.161 µM (active)	0.605 µM (active)	0.212 µM (active)	0.148 µM (active)			
O=C1C(=O)C(Br)(Br)C(Br)=C1Br	16.4 µM (inactive)		18.4 µM (inactive)	16.2 µM (inactive)	17.1 µM (inactive)		19 µM (inactive)	38.1 µM (inactive)	20 µM (inactive)	13.7 µM (inactive)	15.2 µM (inactive)	24.4 µM (inactive)		> 10 µM (inactive)	15.6 µM (inactive)	> 100 µM (inactive)	17.8 µM (inactive)			
Cc1nn(C(=O)CC(=O)Nc2ccc(Cl)cc2)c(C)c1/N=N/c1ccccc1C(=O)O	> 100 µM (inactive)	> 100 µM (inactive)	> 100 µM (inactive)	> 100 µM (inactive)	> 100 µM (inactive)	> 100 µM (inactive)	> 100 µM (inactive)	> 100 µM (inactive)	> 100 µM (inactive)	> 100 µM (inactive)	> 100 µM (inactive)	> 100 µM (inactive)		> 100 µM (inactive)	> 100 µM (inactive)	> 100 µM (inactive)	> 100 µM (inactive)			
CC(=O)[C@H]1CC[C@H]2[C@@H]3CCC4=CC(=O)CC[C@]4(C)[C@H]3CC[C@]12C [PROGESTERONE]	20.6 µM (inactive)	24.5 µM (inactive)	28.5 µM (inactive)	15.7 µM (inactive)	16 µM (inactive)	14.5 µM (inactive)	15 µM (inactive)	24.4 µM (inactive)	10.6 µM (inactive)	17.5 µM (inactive)		12.1 µM (inactive)	11.7 µM (inactive)	23.2 µM (inactive)	18.4 µM (inactive)	20.4 µM (inactive)	11.4 µM (inactive)	16 µM (inactive)	13.7 µM (inactive)	> 100 µM (inactive)
O=C(O)CNS(=O)(=O)c1ccc(NC(=O)c2cccc([N+](=O)[O-])c2)cc1	> 100 µM (inactive)	> 100 µM (inactive)	> 100 µM (inactive)	> 100 µM (inactive)	> 100 µM (inactive)		> 100 µM (inactive)	> 100 µM (inactive)	> 100 µM (inactive)	> 100 µM (inactive)	> 100 µM (inactive)	> 100 µM (inactive)	> 100 µM (inactive)	> 100 µM (inactive)	> 100 µM (inactive)	> 100 µM (inactive)	> 100 µM (inactive)			
COc1cc(-c2cn(S(=O)(=O)c3ccc(C)cc3)c3ccccc23)nc(-c2cn(S(=O)(=O)c3ccc(C)cc3)c3ccccc23)n1	1.35 µM (inactive)	1.32 µM (inactive)	1.3 µM (inactive)	12.2 µM (inactive)	0.745 µM (active)	0.385 µM (active)	0.573 µM (active)	0.728 µM (active)	0.373 µM (active)	0.6 µM (active)		0.69 µM (active)	0.935 µM (active)	0.755 µM (active)	23.3 µM (inactive)	2.25 µM (inactive)	0.968 µM (active)	4.85 µM (inactive)	0.746 µM (active)	0.216 µM (active)
O=[N+]([O-])c1cccc2nc3ccccc3c(NCCCn3ccnc3[N+](=O)[O-])c12	0.000175 µM (active)	0.000227 µM (active)	0.000385 µM (active)	0.00574 µM (active)	0.000109 µM (active)	< 0.0001 µM (active)	< 0.0001 µM (active)	0.00389 µM (active)	< 0.0001 µM (active)	0.0158 µM (active)		0.000336 µM (active)	0.000245 µM (active)	0.000819 µM (active)	0.00189 µM (active)	0.0229 µM (active)	0.00076 µM (active)	< 0.0001 µM (active)	0.0238 µM (active)	0.02 µM (active)
CC(=O)/C=C1\Nc2ccc([N+](=O)[O-])cc2N\C1=C/C(C)=O	58.1 µM (inactive)	25.4 µM (inactive)	58.2 µM (inactive)	17.2 µM (inactive)	58.2 µM (inactive)	28.8 µM (inactive)	54 µM (inactive)	39.5 µM (inactive)	50.8 µM (inactive)	73.5 µM (inactive)		21 µM (inactive)	39.4 µM (inactive)	47.8 µM (inactive)	51.1 µM (inactive)	90.8 µM (inactive)	> 100 µM (inactive)	31.9 µM (inactive)	30 µM (inactive)	17.9 µM (inactive)
O=C(/C=C/c1ccco1)CC(=O)/C=C/c1ccco1	12.7 µM (inactive)	20.9 µM (inactive)	14.7 µM (inactive)	6.17 µM (inactive)	> 10 µM (inactive)	11.4 µM (inactive)	> 10 µM (inactive)	16.8 µM (inactive)	9.89 µM (inactive)	4.99 µM (inactive)		12 µM (inactive)	> 10 µM (inactive)	> 10 µM (inactive)	12.2 µM (inactive)	> 10 µM (inactive)	13.3 µM (inactive)	18.2 µM (inactive)	12.8 µM (inactive)	4.66 µM (inactive)
S=C1Cc2c(-c3ccc(Cl)cc3)cc(-c3ccccc3)nc2-c2ccccc2N1	5.97 µM (inactive)	14.8 µM (inactive)	3.95 µM (inactive)	26.2 µM (inactive)	16 µM (inactive)	11 µM (inactive)	5.47 µM (inactive)	3.83 µM (inactive)	> 100 µM (inactive)	13.9 µM (inactive)		28.7 µM (inactive)	13.1 µM (inactive)	14.3 µM (inactive)	13.8 µM (inactive)	10.6 µM (inactive)	14.8 µM (inactive)	16.6 µM (inactive)	12.7 µM (inactive)	> 100 µM (inactive)
C=C1CC(Cn2cc(Br)c(=O)[nH]c2=O)(c2ccc(-c3ccccc3)cc2)OC1=O (configuration not stated)	1.02 µM (active)	0.776 µM (active)	1.13 µM (inactive)	0.165 µM (active)	0.621 µM (active)	0.301 µM (active)	0.469 µM (active)	1.4 µM (inactive)	0.2 µM (active)	0.582 µM (active)		0.552 µM (active)	1.83 µM (inactive)	2.02 µM (inactive)	0.221 µM (active)	4.31 µM (inactive)	2.03 µM (inactive)	1.66 µM (inactive)	1.41 µM (inactive)	0.32 µM (active)
CC(=O)C(=[N+]=[N-])C(=O)NCC#N	> 10 µM (inactive)	> 10 µM (inactive)	> 10 µM (inactive)	> 10 µM (inactive)	> 10 µM (inactive)	> 10 µM (inactive)	> 10 µM (inactive)	> 10 µM (inactive)	> 10 µM (inactive)	> 10 µM (inactive)		> 10 µM (inactive)	> 10 µM (inactive)	> 10 µM (inactive)	> 10 µM (inactive)	> 10 µM (inactive)	> 10 µM (inactive)	> 10 µM (inactive)	> 10 µM (inactive)	> 10 µM (inactive)
CC(C)c1[nH]nc(C(N)=O)c1/N=N/N(C)C	> 100 µM (inactive)	> 100 µM (inactive)	16 µM (inactive)	36.6 µM (inactive)	67.9 µM (inactive)	98.4 µM (inactive)	> 100 µM (inactive)	> 100 µM (inactive)	79.8 µM (inactive)	35.7 µM (inactive)		31.9 µM (inactive)	24.1 µM (inactive)	59.8 µM (inactive)	> 100 µM (inactive)	52.5 µM (inactive)	0.237 µM (active)	34.9 µM (inactive)	> 100 µM (inactive)	17.1 µM (inactive)
O=C1NC(=O)[C@@]2(CC[C@@H](O)C2)c2ccncc21 [SESBANINE]	> 100 µM (inactive)	> 100 µM (inactive)	> 100 µM (inactive)	> 100 µM (inactive)	> 100 µM (inactive)	> 100 µM (inactive)	> 100 µM (inactive)	> 100 µM (inactive)	> 100 µM (inactive)	> 100 µM (inactive)		> 100 µM (inactive)	> 100 µM (inactive)	> 100 µM (inactive)	> 100 µM (inactive)	> 100 µM (inactive)	> 100 µM (inactive)	> 100 µM (inactive)	> 100 µM (inactive)	> 100 µM (inactive)
ClCc1nn(-c2ccccc2)c(CCl)c1CCl	2.56 µM (inactive)	12 µM (inactive)	7.31 µM (inactive)	1.17 µM (inactive)	3.88 µM (inactive)	2.33 µM (inactive)	3.43 µM (inactive)	3.44 µM (inactive)	2.54 µM (inactive)	1.47 µM (inactive)		1.72 µM (inactive)	4.45 µM (inactive)	3.27 µM (inactive)	5.32 µM (inactive)	8.89 µM (inactive)	4.74 µM (inactive)	3.77 µM (inactive)	5.57 µM (inactive)	0.813 µM (active)

Source: ChEMBL document CHEMBL1201862, “PubChem BioAssay data set” (2004)
